Data from BigSolDB 2.1.

CN1CCN(C(=O)O[C@H]2c3nccnc3C(=O)N2c2ccc(Cl)cn2)CC1
solubility (mole fraction)
Conditions | 288.15 K | 293.15 K | 298.15 K | 303.15 K | 308.15 K | 313.15 K | 318.15 K | 323.15 K | 328.15 K
in acetone | 0.0013 | 0.00153 | 0.0019 | 0.00229 | 0.00269 | 0.00318 | 0.0037 | – | –
in ethanol | 0.00023 | 0.000282 | 0.00036 | 0.000431 | 0.000526 | 0.000672 | 0.000851 | 0.000996 | 0.0012
in isopropyl acetate | 0.000682 | 0.000796 | 0.000964 | 0.0012 | 0.0014 | 0.00163 | 0.00182 | 0.00203 | 0.00226
in methyl acetate | 0.00187 | 0.00217 | 0.0025 | 0.00303 | 0.00356 | 0.00414 | 0.00484 | – | –
in n-propanol | 0.00013 | 0.000172 | 0.000215 | 0.000292 | 0.000382 | 0.000493 | 0.00059 | 0.00079 | 0.00101
in n-propyl acetate | 0.000851 | 0.00102 | 0.00124 | 0.00153 | 0.00183 | 0.00208 | 0.00239 | 0.0027 | 0.00303
